Laboratory results as given in patent US10758534B2 (Vertex Pharmaceuticals Incorporated, priority 2014, dated 2020).
Read-outs that look alike come from different tables or passages of the source.

Target: T1, F508del (Homo sapiens, UniProt P13569, DEL508-508)
T1 construct: expressed in transfected cells
Experiment: Protocol 2: FRET membrane potential optical assay (VIPR), identification of correction compounds
Format: cell-based
Summary of the method: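 Corrector readout: membrane-potential FRET (CC2-DMPE donor, DiSBAC2(3) acceptor) on VIPR II after Cl⁻-free gluconate bath with 10 μM forskolin and 20 μM genistein. Before this, F508del-expressing NIH3T3 cells were exposed to test compound for 16 h at 37 °C without serum; 27 °C incubation served as temperature-correction control.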

[1] = Table 3, compounds of Table 1 as modulators of CFTR activity, protocol not stated
[2] = F508del CFTR modulator activity, compounds of Table 1, read-out: EC30

T1 sequence (P13569 with tags, fused parts or gaps DEL508-508): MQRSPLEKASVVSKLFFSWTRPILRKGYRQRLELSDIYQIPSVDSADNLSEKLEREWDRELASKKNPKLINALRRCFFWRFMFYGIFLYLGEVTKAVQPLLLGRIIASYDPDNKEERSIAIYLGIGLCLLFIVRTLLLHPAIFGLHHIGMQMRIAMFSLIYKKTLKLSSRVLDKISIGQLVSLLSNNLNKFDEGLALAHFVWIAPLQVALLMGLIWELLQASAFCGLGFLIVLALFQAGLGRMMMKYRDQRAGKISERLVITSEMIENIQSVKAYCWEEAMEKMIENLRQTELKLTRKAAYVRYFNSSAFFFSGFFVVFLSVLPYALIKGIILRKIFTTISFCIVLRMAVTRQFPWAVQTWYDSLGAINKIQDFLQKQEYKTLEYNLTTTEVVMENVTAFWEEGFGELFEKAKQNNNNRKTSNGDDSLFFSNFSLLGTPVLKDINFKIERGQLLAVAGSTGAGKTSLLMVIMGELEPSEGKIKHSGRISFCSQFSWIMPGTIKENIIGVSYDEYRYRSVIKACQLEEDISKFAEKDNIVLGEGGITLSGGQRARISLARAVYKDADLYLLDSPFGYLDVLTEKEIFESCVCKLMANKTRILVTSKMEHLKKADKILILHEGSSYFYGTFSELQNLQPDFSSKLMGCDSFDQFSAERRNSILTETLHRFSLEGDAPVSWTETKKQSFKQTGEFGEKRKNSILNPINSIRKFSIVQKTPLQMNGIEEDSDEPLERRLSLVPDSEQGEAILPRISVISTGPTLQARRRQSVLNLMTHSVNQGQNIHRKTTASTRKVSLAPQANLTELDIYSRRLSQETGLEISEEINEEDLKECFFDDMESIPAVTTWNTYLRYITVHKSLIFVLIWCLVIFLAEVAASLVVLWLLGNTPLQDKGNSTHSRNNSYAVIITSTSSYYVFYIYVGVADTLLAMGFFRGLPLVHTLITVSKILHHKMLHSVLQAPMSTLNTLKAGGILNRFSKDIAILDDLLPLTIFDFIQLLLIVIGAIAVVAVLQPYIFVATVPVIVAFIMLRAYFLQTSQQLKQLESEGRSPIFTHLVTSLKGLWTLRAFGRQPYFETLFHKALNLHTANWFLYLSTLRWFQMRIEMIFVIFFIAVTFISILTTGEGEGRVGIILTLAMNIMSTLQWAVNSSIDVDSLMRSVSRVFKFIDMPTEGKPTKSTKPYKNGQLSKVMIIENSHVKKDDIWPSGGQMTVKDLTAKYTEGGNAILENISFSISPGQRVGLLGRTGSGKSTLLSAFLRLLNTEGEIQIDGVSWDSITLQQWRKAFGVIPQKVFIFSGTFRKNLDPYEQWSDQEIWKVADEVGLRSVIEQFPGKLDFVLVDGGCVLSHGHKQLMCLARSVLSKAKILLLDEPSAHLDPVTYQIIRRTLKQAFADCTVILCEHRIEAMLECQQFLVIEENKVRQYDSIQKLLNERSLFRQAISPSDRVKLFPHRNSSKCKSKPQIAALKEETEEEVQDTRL

| EC30 [1] | EC30 [2] | Compound |
| --- | --- | --- |
| +++ (“+++” means <3 uM) | – | Cc1ccc(Oc2nc3c(cc2C(=O)NS(=O)(=O)c2cccc(N)n2)CCCC3(C)C)c(C)c1 [Compound 15, N-[(6-amino-2-pyridyl)sulfonyl]-2-(2,4-dimethylphenoxy)-8,8-dimethyl-6,7-dihydro-5H-quinoline-3-carboxamide] |
| +++ (“+++” means <3 uM) | – | CC(C)Oc1ccc(-c2ccc(C(=O)NS(=O)(=O)c3ccc[nH]c3=O)c(N3C[C@@H](C)CC3(C)C)n2)cn1 [Compound 497, 6-(6-isopropoxy-3-pyridyl)-N-[(2-oxo-1H-pyridin-3-yl)sulfonyl]-2-[(4S)-2,2,4-trimethylpyrrolidin-1-yl]pyridine-3-carboxamide] |
| +++ (“+++” means <3 uM) | – | COc1c(C)cccc1-c1ccc(C(=O)NS(=O)(=O)c2cccc(N)n2)c(Oc2c(C)cc(C)cc2C)n1 [Compound 477, N-[(6-amino-2-pyridyl)sulfonyl]-6-(2-methoxy-3-methyl-phenyl)-2-(2,4,6-trimethylphenoxy)pyridine-3-carboxamide] |
| – | < 3000 nM | COc1cccc(-c2cnc(N3CC(C)CC3(C)C)c(C(=O)NS(=O)(=O)c3cccc(N)n3)c2)c1 (stereo not shown) [Compound 2031, N-[(6-amino-2-pyridyl)sulfonyl]-5-(3-methoxyphenyl)-2-(2,2,4-trimethylpyrrolidin-1-yl)pyridine-3-carboxamide] |
| +++ (“+++” means <3 uM) | – | Cc1cc(C)c(Cn2c(C(=O)NS(=O)(=O)c3cccc(N)c3)cc3cccc(C)c32)c(C)c1 [Compound 194, N-(3-aminophenyl)sulfonyl-7-methyl-1-[(2,4,6-trimethylphenyl)methyl]indole-2-carboxamide] |
| +++ (“+++” means <3 uM) | – | Cc1cc(C)c(Cn2c(C(=O)NS(=O)(=O)c3ccccc3)cc3ccccc32)c(C)c1 [Compound 264, N-(benzenesulfonyl)-1-[(2,4,6-trimethylphenyl)methyl]indole-2-carboxamide] |
| ++ (“++” means between 3 uM and 10 uM) | – | Cc1ccc(-c2nc(C(C)(C)C)ccc2C(=O)NS(=O)(=O)c2cccc(N)c2)cc1 [Compound 301, N-(3-aminophenyl)sulfonyl-6-tert-butyl-2-(p-tolyl)pyridine-3-carboxamide] |
| – | < 3000 nM | CC1CCCN(c2cccc(S(=O)(=O)NC(=O)c3cccnc3N3CC(C)CC3(C)C)n2)C1 (stereo not shown) [Compound 2030, N—[[6-(3-methyl-1-piperidyl)-2-pyridyl]sulfonyl]-2-(2,2,4-trimethylpyrrolidin-1-yl)pyridine-3-carboxamide] |
| – | < 3000 nM | C[C@@H]1CN(c2nc(-c3cccc(F)c3O)ccc2C(=O)NS(=O)(=O)c2cccnc2N)C(C)(C)C1 [Compound 2446, N-[(2-amino-3-pyridyl)sulfonyl]-6-(3-fluoro-2-hydroxy-phenyl)-2-[(4S)-2,2,4-trimethylpyrrolidin-1-yl]pyridine-3-carboxamide] |
| – | < 3000 nM | C#CCCC(=O)Nc1cccc(S(=O)(=O)NC(=O)c2ccc(-c3ccc(Cl)c(OCCC)c3)nc2N2[C@H](C)CC[C@@H]2C)n1 [Compound 2540, 6-(4-chloro-3-propoxy-phenyl)-2-[(2R,5S)-2,5-dimethylpyrrolidin-1-yl]-N-[[6-(pent-4-ynoylamino)-2-pyridyl]sulfonyl]pyridine-3-carboxamide] |
| ++ (“++” means between 3 uM and 10 uM) | – | Cc1cc(C)c(Cn2c(C(=O)NS(=O)(=O)c3cccc(N)c3)cc3cccnc32)c(C)c1 [Compound 184, N-(3-aminophenyl)sulfonyl-1-[(2,4,6-trimethylphenyl)methyl]pyrrolo[2,3-b]pyridine-2-carboxamide] |
| – | 3000 to 10000 nM | CC1CN(c2ncc(-c3ccc(CO)cc3)cc2C(=O)NS(=O)(=O)c2cccc(N)n2)C(C)(C)C1 (stereo not shown) [Compound 2088, N-[(6-amino-2-pyridyl)sulfonyl]-5-[4-(hydroxymethyl)phenyl]-2-(2,2,4-trimethylpyrrolidin-1-yl)pyridine-3-carboxamide] |
| +++ (“+++” means <3 uM) | – | CC1CCCN(c2nc(-c3ccc(OC(C)C)nc3)ccc2C(=O)NS(=O)(=O)c2cccc(N)n2)C1 (stereo not shown) [Compound 321, N-[(6-amino-2-pyridyl)sulfonyl]-6-(6-isopropoxy-3-pyridyl)-2-(3-methyl-1-piperidyl)pyridine-3-carboxamide] |
| ++ (“++” means between 3 uM and 10 uM) | – | CCCn1cc(-c2ccc(C(=O)NS(=O)(=O)c3cccc(N)n3)c(Oc3c(C)cc(C)cc3C)n2)cn1 [Compound 469, N-[(6-amino-2-pyridyl)sulfonyl]-6-(1-propylpyrazol-4-yl)-2-(2,4,6-trimethylphenoxy)pyridine-3-carboxamide] |
| +++ (“+++” means <3 uM) | – | CC(C)(C)c1ccc(C(=O)NS(=O)(=O)c2cccc(N)n2)c(C2CCCCC2)n1 [Compound 411, N-[(6-amino-2-pyridyl)sulfonyl]-6-tert-butyl-2-cyclohexyl-pyridine-3-carboxamide] |
| +++ (“+++” means <3 uM) | – | Cc1cc(C)c(Oc2nc(C(C)(C)C)ccc2C(=O)NS(=O)(=O)c2nc(N)ccc2F)c(C)c1 [Compound 226, N-[(6-Amino-3-fluoro-2-pyridyl)sulfonyl]-6-tert-butyl-2-(2,4,6-trimethylphenoxy)pyridine-3-carboxamide] |
| – | < 3000 nM | CC1CN(c2ncccc2C(=O)NS(=O)(=O)c2cccc(Oc3ccc(-n4cccc4)cc3)n2)C(C)(C)C1 (stereo not shown) [Compound 2563, N—[[6-(4-pyrrol-1-ylphenoxy)-2-pyridyl]sulfonyl]-2-(2,2,4-trimethylpyrrolidin-1-yl)pyridine-3-carboxamide] |
| – | < 3000 nM | C[C@@H]1CN(c2nc(-n3cc(OCC(C)(C)C)cn3)ccc2C(=O)NS(=O)(=O)c2cccnc2N)C(C)(C)C1 [Compound 2406, N-[(2-amino-3-pyridyl)sulfonyl]-6-[4-(2,2-dimethylpropoxy)pyrazol-1-yl]-2-[(4S)-2,2,4-trimethylpyrrolidin-1-yl]pyridine-3-carboxamide] |
| +++ (“+++” means <3 uM) | – | COc1ccc(-c2cc(C(=O)NS(=O)(=O)c3ccccc3)n(Cc3c(C)cccc3C)n2)c(OC)c1 [Compound 135, N-(benzenesulfonyl)-5-(2,4-dimethoxyphenyl)-2-[(2,6-dimethylphenyl)methyl]pyrazole-3-carboxamide] |
| – | 3000 to 10000 nM | C[C@@H]1CN(c2nc(-c3ccccc3F)ccc2C(=O)NS(=O)(=O)N2CC[C@H](N)C2)C(C)(C)C1 [Compound 2045, N-[(3S)-3-aminopyrrolidin-1-yl]sulfonyl-6-(2-fluorophenyl)-2-[(4S)-2,2,4-trimethylpyrrolidin-1-yl]pyridine-3-carboxamide] |
| + (“+” means greater than 10 uM) | – | COc1ccnc2c1cc(C(=O)NS(=O)(=O)c1cccc(N)n1)n2Cc1c(C)cc(C)cc1C [Compound 539, N-[(6-amino-2-pyridyl)sulfonyl]-4-methoxy-1-[(2,4,6-trimethylphenyl)methyl]pyrrolo[2,3-b]pyridine-2-carboxamide] |
| – | < 3000 nM | CC(C)Cc1ccc(C(=O)NS(=O)(=O)c2ccccc2)c(N2C[C@@H](C)CC2(C)C)n1 [Compound 2246, N-(benzenesulfonyl)-6-isobutyl-2-[(4S)-2,2,4-trimethylpyrrolidin-1-yl]pyridine-3-carboxamide] |
| – | < 3000 nM | COc1ccc(C)cc1-c1ccc(C(=O)NS(=O)(=O)c2cccnc2N)c(N2C[C@@H](C)CC2(C)C)n1 [Compound 2413, N-[(2-amino-3-pyridyl)sulfonyl]-6-(2-methoxy-5-methyl-phenyl)-2-[(4S)-2,2,4-trimethylpyrrolidin-1-yl]pyridine-3-carboxamide] |
| +++ (“+++” means <3 uM) | – | Cc1ccc(-c2nc(C(C)(C)C)ccc2C(=O)NS(=O)(=O)c2ccccc2)cc1 [Compound 74, N-(benzenesulfonyl)-6-tert-butyl-2-(p-tolyl)pyridine-3-carboxamide] |
| +++ (“+++” means <3 uM) | – | Cc1cccc(C)c1Cn1nc(C(C)(C)C)cc1C(=O)NS(=O)(=O)c1cccs1 [Compound 77, 5-tert-butyl-2-[(2,6-dimethylphenyl)methyl]-N-(2-thienylsulfonyl)pyrazole-3-carboxamide] |
| ++ (“++” means between 3 uM and 10 uM) | – | Cc1cc(C)c(Oc2nc(-c3ccc(F)c(F)c3)ccc2C(=O)NS(=O)(=O)c2ccc[nH]c2=O)c(C)c1 [Compound 546, 6-(3,4-difluorophenyl)-N-[(2-oxo-1H-pyridin-3-yl)sulfonyl]-2-(2,4,6-trimethylphenoxy)pyridine-3-carboxamide] |
| +++ (“+++” means <3 uM) | – | Cc1cc(C)c(Oc2nc(-c3cccc(C(F)(F)F)c3)ccc2C(=O)NS(=O)(=O)c2cccc(N)n2)c(C)c1 [Compound 709, N-[(6-amino-2-pyridyl)sulfonyl]-6-[13-(trifluoromethyl)phenyl]-2-(2,4,6-trimethylphenoxy)pyridine-3-carboxamide] |

| Compound | EC30 [1] | EC30 [2] |
| --- | --- | --- |
| CC(C)COc1ccc(-c2ccc(C(=O)NS(=O)(=O)c3cccc(N)n3)c(N3[C@H](C)CC[C@@H]3C)n2)cc1 [Compound 563, N-[(6-amino-2-pyridyl)sulfonyl]-2-[(2S,5R)-2,5-dimethylpyrrolidin-1-yl]-6-(4-isobutoxyphenyl)pyridine-3-carboxamide] | +++ (“+++” means <3 uM) | – |
| C[C@@H]1CC[C@H](C)N1c1nc(-c2ccc(OC3CCC3)nc2)ccc1C(=O)NS(=O)(=O)c1cccc(N)n1 [Compound 428, N-[(6-amino-2-pyridyl)sulfonyl]-6-[6-(cyclobutoxy)-3-pyridyl]-2-[(2S,5R)-2,5-dimethylpyrrolidin-1-yl]pyridine-3-carboxamide] | +++ (“+++” means <3 uM) | – |
| CC(C)CCOc1cccc(S(=O)(=O)NC(=O)c2ccc(C(C)(C)C)nc2N2CC(C)CC2(C)C)n1 (stereo not shown) [Compound 2716] | – | < 3000 nM |
| CC(C)COc1cc(F)cc(-c2ccc(C(=O)NS(=O)(=O)c3cccc(N)n3)c(N3[C@H](C)CC[C@@H]3C)n2)c1 [Compound 171, N-[(6-amino-2-pyridyl)sulfonyl]-2-[(2S,5R)-2,5-dimethylpyrrolidin-1-yl]-6-(3-fluoro-5-isobutoxy-phenyl)pyridine-3-carboxamide] | +++ (“+++” means <3 uM) | – |
